In patent publication EP0015817A1, “Piperidine derivatives, process for their preparation and their use in therapeutical compositions” (METABIO-JOULLIE Société anonyme:, priority 1979, dated 1980):
Read-outs that look alike come from different tables or passages of the source.

Tests used:
[1] = Acute toxicity (LD50) in mice; conditions: mouse, in vivo, souris Swiss NMRI, read-out: DL50 (the source's name)
Method: La DL50 a été déterminée chez la souris Swiss NMRI sur le bromhydrate de la benzyloxy-4 pipéridine : - voie orale DL50 75 mg/kg - voie I.V. DL50 32,5 mg/kg

duodénum isolé de rat = assay: Antispasmodic action: antagonism of barium chloride-induced contraction on isolated rat duodenum (Magnus method); conditions: for IC50: read-out: Concentrations molaires inhibitrices 50 %
Method: Les essais sont effectués sur le duodénum isolé de rat en survie dans du liquide de Tyrode oxygéné et à température de 37°C (cuve de 20 ml, bain- marie à organes isolés type Valette).
Le tonus et les mouvements de l'organe isolé sont enregistrés par la méthode de Magnus (R.) (Arch. Ges. Physiol. 1904, 102; 123) à l'aide d'une jauge de contrainte reliée à un enregistreur électronique Electromed.
L'antagonisme exercé par le produit étudié est recherché vis-à-vis des effets contracturants musculotropes du chlorure de baryum.
La papavérine est utilisée comme substance antagoniste de référence.
On détermine la concentration molaire du produit qui diminue de 50 % les effets du chlorure de baryum.

| Compound | LD50 ([1]; iv, voie I.V.) | LD50 ([1]; po, voie orale) | IC50 (duodénum isolé de rat; concentration reducing by 50 % the effects of chlorure de baryum, isolated rat duodenum in oxygenated Tyrode, 37°C) | activité antispasmodique comparée à celle de la papavérine (duodénum isolé de rat; qualitative comparison with papavérine, chlorure de baryum contraction, isolated rat duodenum) | IC50 (duodénum isolé de rat; Rattus norvegicus) |
| --- | --- | --- | --- | --- | --- |
| c1ccc(COC2CCNCC2)cc1 [Benzyloxy-4 pipéridine (bromhydrate), Bromhydrate de benzyloxy-4 pipéridine] | 32.5 mg/kg | 75 mg/kg | 18 µM | sensiblement égale à celle de la papavérine |  |
| COc1ccc(Cc2nccc3cc(OC)c(OC)cc23)cc1OC [Papavérine, reference compound] |  |  |  |  | 12.5 µM |
